“Also recorded” adds a separate entry of the source. Where two headings read alike, the source gives them in different places. Peptide text beside a SMILES is read from it.
Key:
PSD-95 PDZ1 = target: T1, PSD-95 PDZ1 (Homo sapiens, UniProt P78352); assay: FP competition assay, PSD-95 PDZ1 (probe Cy5-KIF1Bα); type: binding
T1 construct: PSD-95 PDZ1 (aa 61–151); made in house; host or cells: E. coli One Shot BL21 Star (DE3)
Method: (§4) FP measurements were performed in black, flat bottom 384-well NBS microplates (Corning) on a Synergy H4 microplatereader (BioTek Instruments) equipped with a 620/40 nm excitation filter, a 680/30 nm emission filter, and a 660 nm dichroic mirror. Polarization values were corrected with blank samples and samples with fluorescent probe alone. At least 10 data points were measured for each curve, and each data point was measured in triplicate. […] All FP measurements were performed in a buffer containing 10 mM HEPES pH 7.4, 150 mM NaCl, and 1% BSA and incubated at least 15 min at room temperature before reading. The signal was stable for more than an hour, showing that the reaction was at equilibrium.
(§5) For the competition binding curves, probe was mixed with a constant concentration of PDZ protein corresponding to the K d and a twofold dilution series of unlabeled peptide in a total volume of 30 µl. The baseline was determined using a sample containing only probe. The IC50 was determined by fitting to a 1∶1 binding model: Y = Ymax − Ymax × X/(X+IC50). The K i was calculated from the IC50 and from the K d for the interaction between the PDZ protein and the probe as described previously [38].

PSD-95 PDZ3 = target: T2, PSD-95 PDZ3 (Homo sapiens, UniProt P78352); assay: FP competition assay, PSD-95 PDZ3 (probe Cy5-CRIPT); type: binding
T2 construct: made in house; host or cells: E. coli One Shot BL21 Star (DE3)
Method: (§1) We used a competition set-up, where a constant concentration of isolated PSD-95 PDZ domain and a labeled reference ligand was titrated with unlabeled peptides from the GPCR C-tail library, typically within a 1–512 µM concentration range, and the resulting curves were fitted to obtain the IC50, which was used to calculate the K i (Figure 1). Three Cy5-labeled peptides with well-documented interactions with PSD-95 were used as reference ligands for the competition assay: Cy5-KIF1Bα was used for PDZ1 [20], Cy5-GluN2B (formerly known as NR2B) was used for PDZ2 and PDZ1-2 [21], and Cy5-CRIPT was used for PDZ3 [22] (Table S1). Competition with unlabeled versions of the reference ligands was used to validate the FP assay by comparison with the literature (Table S2).
(§2) FP measurements were performed in black, flat bottom 384-well NBS microplates (Corning) on a Synergy H4 microplatereader (BioTek Instruments) equipped with a 620/40 nm excitation filter, a 680/30 nm emission filter, and a 660 nm dichroic mirror. Polarization values were corrected with blank samples and samples with fluorescent probe alone. At least 10 data points were measured for each curve, and each data point was measured in triplicate. 25 nM Cy5-labeled probe was used for each assay: Cy5-KIF1Bα for PDZ1, Cy5-GluN2B for PDZ2 and PDZ1-2, and Cy5-CRIPT for PDZ3. All FP measurements were performed in a buffer containing 10 mM HEPES pH 7.4, 150 mM NaCl, and 1% BSA and incubated at least 15 min at room temperature before reading. The signal was stable for more than an hour, showing that the reaction was at equilibrium.
Saturation binding curves were used to determine the functionality of the PDZ domains by comparison with literature values and to calculate K i values from competition curves. Saturation binding curves were performed by mixing probe with a twofold dilution series of PDZ protein in a total volume of 30 µl. The K d was determined by fitting to a 1∶1 binding model: Y = Ymax × X/(X+K d).
(§3) For the competition binding curves, probe was mixed with a constant concentration of PDZ protein corresponding to the K d and a twofold dilution series of unlabeled peptide in a total volume of 30 µl. The baseline was determined using a sample containing only probe. The IC50 was determined by fitting to a 1∶1 binding model: Y = Ymax − Ymax × X/(X+IC50). The K i was calculated from the IC50 and from the K d for the interaction between the PDZ protein and the probe as described previously.

PSD-95 PDZ2 = target: T3, PSD-95 PDZ2 (Homo sapiens, UniProt P78352); assay: FP competition assay, PSD-95 PDZ2 (probe Cy5-GluN2B); type: binding; conditions: read-out: K i PDZ2
T3 construct: PDZ2 (aa 155–249); made in house; host or cells: E. coli One Shot BL21 Star (DE3)
Method: as §4, §5

PSD-95 = assay: FP competition assay, PSD-95 PDZ domains overall (strongest binding domain / non-binders); conditions: FP competition with the isolated PDZ domains, peptide typically 1–512 µM
Method: as §1, §2, §3

[1] = 25 nM Cy5-KIF1Bα, 10 mM HEPES pH 7.4, 150 mM NaCl, 1% BSA, room temperature, at least 15 min, Ki ± fitting error, read-out: K i PDZ1

Interaction with PSD-95 using fluorescence polarization (PSD-95)	Molecule	other results
not to interact	ANGLMQTSKL [SSTR5, synthetic peptide, C-terminal 10 aa of human SSTR5 with N-terminal YDDR/DDR linker]	
not to interact	ESESSSFHSS [CXCR4, synthetic peptide, C-terminal 10 aa of human CXCR4 with N-terminal YDDR/DDR linker]	
not to interact	ETSEASYSGL [CXCR3, synthetic peptide, C-terminal 10 aa of human CXCR3 with N-terminal YDDR/DDR linker]	
not to interact	SENATSLTTF [CXCR5, synthetic peptide, C-terminal 10 aa of human CXCR5 with N-terminal YDDR/DDR linker]	
not to interact	SSSVNVSSNL [CXCR1, synthetic peptide, C-terminal 10 aa of human CXCR1 with N-terminal YDDR/DDR linker]	

Continued, molecule first:

Molecule	Interaction with PSD-95 using fluorescence polarization (PSD-95)	other results
CC(C)[C@H](NC(=O)[C@H](CS)NC(=O)[C@H](CO)NC(=O)[C@@H](NC(=O)[C@H](CCCCN)NC(=O)[C@H](CCC(=O)O)NC(=O)[C@H](CC(N)=O)NC(=O)[C@@H](NC(=O)CNC(=O)[C@H](CC(=O)O)NC(=O)[C@H](CCCNC(=N)N)NC(=O)[C@H](CC(=O)O)NC(=O)[C@H](CC(=O)O)NC(=O)[C@@H](N)Cc1ccc(O)cc1)C(C)C)C(C)C)C(=O)O [5-HTR2A] (H-YDDRDGVNEKVSCV-OH)		Ki (PSD-95 PDZ1; [1]): 160 ± 4 µM; Ki (PSD-95 PDZ3; read-out: K i PDZ3): > 1000 µM; Ki (PSD-95 PDZ2): 46 ± 0.2 µM
CC(C)C[C@H](NC(=O)[C@@H](NC(=O)[C@@H](NC(=O)[C@H](CO)NC(=O)[C@@H](NC(=O)[C@H](Cc1c[nH]cn1)NC(=O)CNC(=O)[C@H](CO)NC(=O)[C@H](CO)NC(=O)[C@H](CO)NC(=O)[C@H](CCCNC(=N)N)NC(=O)[C@H](CC(=O)O)NC(=O)[C@H](CC(=O)O)NC(=O)[C@@H](N)Cc1ccc(O)cc1)[C@@H](C)O)[C@@H](C)O)[C@@H](C)O)C(=O)O [CXCR2] (H-YDDRSSSGHTSTTL-OH)		Ki (PSD-95 PDZ1; 25 nM Cy5-KIF1Bα, 10 mM HEPES pH 7.4, 150 mM NaCl, 1% BSA, room temperature, mean Ki ± SEM from two or more independent experiments, read-out: K i PDZ1): 280 ± 25 µM; Ki (PSD-95 PDZ3; read-out: K i PDZ3): 370 ± 39 µM; Ki (PSD-95 PDZ2): 370 ± 53 µM
CC[C@H](C)[C@H](NC(=O)[C@H](CO)NC(=O)[C@H](CO)NC(=O)[C@H](CC(C)C)NC(=O)[C@H](CCCCN)NC(=O)[C@H](CCC(=O)O)NC(=O)[C@@H](N)Cc1ccc(O)cc1)C(=O)N[C@@H](CCC(=O)O)C(=O)N[C@@H](CO)C(=O)N[C@@H](CC(=O)O)C(=O)N[C@H](C(=O)O)C(C)C [GluN2B, reference compound] (H-YEKLSSIESDV-OH)		Ki (PSD-95 PDZ1; unlabeled reference ligand vs Cy5-KIF1Bα, mean Ki ± SEM from two or more independent experiments, read-out: Ki PDZ1 Result (Table S2)): 29 ± 2.5 µM; Ki (PSD-95 PDZ3; FP competition, unlabeled reference ligand vs Cy5-CRIPT, Ki ± fitting error, read-out: Ki PDZ3 Result (Table S2)): > 1000 µM
CC[C@H](C)[C@H](NC(=O)[C@H](CO)NC(=O)[C@@H](NC(=O)[C@H](CCC(N)=O)NC(=O)[C@H](CC(C)C)NC(=O)[C@H](CC(=O)O)NC(=O)CNC(=O)[C@H](CC(N)=O)NC(=O)[C@H](CC(C)C)NC(=O)[C@H](CC(C)C)NC(=O)[C@H](CCCNC(=N)N)NC(=O)[C@H](CC(=O)O)NC(=O)[C@H](CC(=O)O)NC(=O)[C@@H](N)Cc1ccc(O)cc1)[C@@H](C)O)C(=O)O [SSTR2A] (H-YDDRLLNGDLQTSI-OH)		Ki (PSD-95 PDZ1; [1]): 620 ± 106 µM; Ki (PSD-95 PDZ3; read-out: K i PDZ3): > 1000 µM; Ki (PSD-95 PDZ2): 230 ± 2 µM
CC[C@H](C)[C@H](NC(=O)[C@H](CCCNC(=N)N)NC(=O)[C@H](CCSC)NC(=O)[C@@H](NC(=O)[C@H](CO)NC(=O)[C@H](CO)NC(=O)[C@H](CCCCN)NC(=O)[C@H](CCCNC(=N)N)NC(=O)[C@H](CC(=O)O)NC(=O)[C@@H](N)CC(=O)O)[C@@H](C)O)C(=O)N[C@@H](CO)C(=O)N[C@@H](Cc1ccc(O)cc1)C(=O)N[C@@H](CC(C)C)C(=O)O [SSTR3] (H-DDRKSSTMRISYL-OH)		Ki (PSD-95 PDZ1; [1]): 610 ± 125 µM; Ki (PSD-95 PDZ1; receptors binding to PDZ1 but not to PDZ2, read-out: K i PDZ1): > 600 µM; Ki (PSD-95 PDZ3; read-out: K i PDZ3): 280 ± 5 µM; Ki (PSD-95 PDZ2): > 1000 µM
CC(C)C[C@H](NC(=O)[C@H](CC(C)C)NC(=O)[C@H](CO)NC(=O)[C@H](CC(=O)O)NC(=O)[C@H](CC(N)=O)NC(=O)[C@@H](NC(=O)[C@H](CO)NC(=O)[C@H](CS)NC(=O)[C@H](CC(N)=O)NC(=O)[C@H](CCCNC(=N)N)NC(=O)[C@H](CCCNC(=N)N)NC(=O)[C@H](CC(=O)O)NC(=O)[C@H](CC(=O)O)NC(=O)[C@@H](N)Cc1ccc(O)cc1)[C@@H](C)O)C(=O)O [β2AR] (H-YDDRRNCSTNDSLL-OH)		Ki (PSD-95 PDZ1; [1]): > 1000 µM; Ki (PSD-95 PDZ3; read-out: K i PDZ3): > 1000 µM
DRTNHQVRSL [μOR-1A, synthetic peptide, C-terminal 10 aa of human µOR-1A with N-terminal YDDR/DDR linker]	not to interact	
EFKQNGDTSL [P2Y1, synthetic peptide, C-terminal 10 aa of human P2Y1 with N-terminal YDDR/DDR linker]	not to interact	
EVVDSTTSSL [mGlu2, synthetic peptide, C-terminal 10 aa of human mGlu2 with N-terminal YDDR/DDR linker]	not to interact	
GHPLMDSTL [LPA2, synthetic C-tail peptide of human LPA2 with N-terminal YDDR/DDR linker]	not to interact	
GVQPALGVGL [A2B, synthetic peptide, C-terminal 10 aa of human adenosine A2B receptor with N-terminal YDDR/DDR linker]	not to interact	
NDPESLESCF [5-HTR4(a), synthetic peptide, C-terminal 10 aa of human 5-HTR4(a) with N-terminal YDDR/DDR linker]	not to interact	
QRERRQKSDW [μOR-1B2, synthetic peptide, C-terminal 10 aa of human µOR-1B2 with N-terminal YDDR/DDR linker]	not to interact	
QSPFPFPGRV [μOR-1B5, synthetic peptide, C-terminal 10 aa of human µOR-1B5 with N-terminal YDDR/DDR linker]	not to interact	
RDIDGMNKPV [κOR, synthetic peptide, C-terminal 10 aa of human κ opioid receptor (no PDZ motif) with N-terminal YDDR/DDR linker]	not to interact; also recorded: no interaction	
RDYTQSSSSL [mGlu5(b), synthetic peptide, C-terminal 10 aa of human mGlu5(b) with N-terminal YDDR/DDR linker]	not to interact	
SDGPGGGAAA [δOR, synthetic peptide, C-terminal 10 aa of human δ opioid receptor with N-terminal YDDR/DDR linker]	not to interact	
TGEHEVSTGL [CCR5 Mouse, synthetic peptide, C-terminal 10 aa of mouse CCR5 with N-terminal YDDR/DDR linker]	not to interact	
TGEQEISVGL [CCR5 Human, synthetic peptide, C-terminal 10 aa of human CCR5 with N-terminal YDDR/DDR linker]	not to interact	

— paper PMC3653948, “PDZ Domain-Mediated Interactions of G Protein-Coupled Receptors with Postsynaptic Density Protein 95: Quantitative Characterization of Interactions” (PLoS ONE, 2013)
